Some results are limits rather than exact numbers.

In the first experiment the test system is HBV. Put plainly: HBV-DNA Antiviral Assay Using HepG2.2.15 Cells (extracellular HBV DNA by qPCR). Type of experiment: cell-based, hepatitis B virus (HBV). The note with it: HBV DNA inhibition, HepG2.2.15 cells, extracellular HBV DNA by qPCR; read-out: EC50. A digest of the protocol:
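HepG2.2.15 cells were treated on day 1 with 8 concentrations (4-fold dilutions, duplicate; 0.5% DMSO), with compound-containing medium refreshed on day 4, at 37 °C. On day 7, supernatant HBV DNA was measured by qPCR against a plasmid standard curve, with inhibition normalised between DMSO and ETV controls. EC50/EC90 and CC50 (CellTiter-Glo ATP) came from variable-slope fits.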
In general terms: Quantitative PCR measures a nucleic acid by following its amplification.
As usually defined, the EC50 is the concentration that produces a half-maximal response. In the case of `C#C[C@H](NC(=O)C(=O)c1c(C)c(C(=O)Nc2ccc(F)c(C#N)c2)n(C)c1C)C1COC1` [Compound 57], the 50% effective concentration (EC50) was less than 1 nM.

Still in this experiment, the particulars now being: Hepatitis B virus, HepG2.2.15.
With `C#CC1(NC(=O)C(=O)c2c(C)c(C(=O)Nc3ccc(F)c(C#N)c3)n(C)c2C)COC1` [Compound 26, N-(3-cyano-4-fluorophenyl)-4-[[(3-ethynyloxetan-3-yl)carbamoyl]carbonyl]-1,3,5-trimethylpyrrole-2-carboxamide], the EC50 was less than 1 nM.

Staying with this experiment, now noted: Hepatitis B virus; HBV DNA inhibition, HepG2.2.15 cells, extracellular HBV DNA by qPCR; read-out: EC50.
As for `Cc1c(C(=O)C(=O)NC(C)(C)c2ccnn2C)c(C)n(C)c1C(=O)Nc1ccc(F)c(C#N)c1` [Compound 137, N-(3-cyano-4-fluoro-phenyl)-1,3,5-trimethyl-4-[2-[[1-methyl-1-(2-methylpyrazol-3-yl)ethyl]amino]-2-oxo-acetyl]pyrrole-2-carboxamide], the concentration for a half-maximal effect (EC50) lay within 1 to 10 nM.

As to `Cc1c(C(=O)C(=O)NC2(C#C[C@H](C)O)COC2)c(C)n(C)c1C(=O)Nc1ccc(F)c(C#N)c1` [Compound 94b, N-(3-cyano-4-fluoro-phenyl)-1,3,5-trimethyl-4-[2-oxo-2-[[3-[(3S)-3-hydroxybut-1-ynyl]oxetan-3-yl]amino]acetyl]pyrrole-2-carboxamide], the half-maximal effective concentration (EC50) fell in the range of 1 to 10 nM.

As to `C#CC1(NC(=O)C(=O)c2c(C)c(C(=O)Nc3ccc(F)c(C(F)F)c3)n(C)c2Cl)CC(F)(F)C1` [Compound 81, 5-chloro-N-[3-(difluoromethyl)-4-fluoro-phenyl]-4-[2-[(1-ethynyl-3,3-difluoro-cyclobutyl)amino]-2-oxo-acetyl]-1,3-dimethyl-pyrrole-2-carboxamide], the EC50 was in the range of 1 to 10 nM.

Take `Cc1c(C(=O)C(=O)NC(C)(C)c2c[nH]cn2)c(C)n(C)c1C(=O)Nc1ccc(F)c(C#N)c1` [Compound 104, N-(3-cyano-4-fluoro-phenyl)-4-[2-[[1-(1H-imidazol-4-yl)-1-methyl-ethyl]amino]-2-oxo-acetyl]-1,3,5-trimethyl-pyrrole-2-carboxamide]: the EC50 lay in the range of 1 to 10 nM.

On to `C=C[C@](CO)(NC(=O)C(=O)c1c(C)c(C(=O)Nc2ccc(F)c(C(F)(F)F)c2)n(C)c1C)C(F)(F)F` [Compound 80a, N-[4-fluoro-3-(trifluoromethyl)phenyl]-1,3,5-trimethyl-4-[2-oxo-2-[[(1R)-1-(hydroxymethyl)-1-(trifluoromethyl)allyl]amino]acetyl]pyrrole-2-carboxamide], for which the 50% effective concentration (EC50) was 1 to 10 nM.

`C#CCNC(=O)C(=O)c1c(F)c(C(=O)Nc2ccc(F)c(C#N)c2)n(C)c1Cl` [Compound 12, 5-chloro-N-(3-cyano-4-fluoro-phenyl)-3-fluoro-1-methyl-4-[2-oxo-2-(prop-2-ynylamino)acetyl]pyrrole-2-carboxamide]: the EC50 is 100 to 1000 nM.

For the compound `Cc1c(C(=O)C(=O)NC(C)(C)c2ccc[nH]c2=O)c(C)n(C)c1C(=O)Nc1ccc(F)c(C(F)(F)F)c1` [Compound 159, N-[4-fluoro-3-(trifluoromethyl)phenyl]-1,3,5-trimethyl-4-[2-[[1-methyl-1-(2-oxo-1H-pyridin-3-yl)ethyl]amino]-2-oxo-acetyl]pyrrole-2-carboxamide], the EC50 fell in the range of 1 to 10 nM.

For the compound `C#C[C@@H](COC)NC(=O)C(=O)c1c(C)c(C(=O)Nc2ccc(F)c(C#N)c2)n(C)c1C` [Compound 28a, N-(3-cyano-4-fluoro-phenyl)-4-[2-[[(1S)-1-(methoxymethyl)prop-2-ynyl]amino]-2-oxo-acetyl]-1,3,5-trimethyl-pyrrole-2-carboxamide], the half-maximal effective concentration (EC50) lay in the range of 1 to 10 nM.

On to `Cc1c(C(=O)C(=O)NC(C)(C)c2ncc[nH]2)c(C)n(C)c1C(=O)Nc1ccc(F)c(C#N)c1` [Compound 131, N-(3-cyano-4-fluoro-phenyl)-4-[2-[[1-(1H-imidazol-2-yl)-1-methyl-ethyl]amino]-2-oxo-acetyl]-1,3,5-trimethyl-pyrrole-2-carboxamide], for which the EC50 was 1 to 10 nM.

As for `Cc1c(C(=O)C(=O)NC(C)(C)c2cn(C)cn2)c(C)n(C)c1C(=O)Nc1ccc(F)c(C(F)(F)F)c1` [Compound 149, N-[4-fluoro-3-(trifluoromethyl)phenyl]-1,3,5-trimethyl-4-[2-[[1-methyl-1-(1-methylimidazol-4-yl)ethyl]amino]-2-oxo-acetyl]pyrrole-2-carboxamide], the EC50 lay within 100 to 1000 nM.

Regarding `C#C[C@@H](CO)NC(=O)C(=O)c1c(C)c(C(=O)Nc2ccc(F)c(C#N)c2)n(C)c1C` (single isomer, unassigned) [Compound 31a], the concentration for a half-maximal effect (EC50) fell in the range of 1 to 10 nM.

With `Cc1c(C(=O)C(=O)NC(C)(C)c2cn[nH]c2)c(C)n(C)c1C(=O)Nc1ccc(F)c(C(F)(F)F)c1` [Compound 97, N-[4-fluoro-3-(trifluoromethyl)phenyl]-1,3,5-trimethyl-4-[2-[[1-methyl-1-(1H-pyrazol-4-yl)ethyl]amino]-2-oxo-acetyl]pyrrole-2-carboxamide], the EC50 was less than 1 nM.

`C#CC1(NC(=O)C(=O)c2c(C)c(C(=O)Nc3ccc(F)c(C#N)c3)n(C)c2C)CCCC1` [Compound 109, N-(3-cyano-4-fluoro-phenyl)-4-[2-[(1-ethynylcyclopentyl)amino]-2-oxo-acetyl]-1,3,5-trimethyl-pyrrole-2-carboxamide]: the concentration giving a half-maximal response (EC50) was 1 to 10 nM.

Turning to `C=C[C@](CO)(NC(=O)C(=O)c1c(C)c(C(=O)Nc2ccc(F)c(C#N)c2)n(C)c1C)C(F)(F)F` [Compound 74a, N-(3-cyano-4-fluoro-phenyl)-1,3,5-trimethyl-4-[2-oxo-2-[[(1R)-1-(hydroxymethyl)-1-(trifluoromethyl)allyl]amino]acetyl]pyrrole-2-carboxamide], the concentration giving a half-maximal response (EC50) was in the range of 1 to 10 nM.

On to `C#CC1(NC(=O)C(=O)c2c(C)c(C(=O)Nc3ccc(F)c(C#N)c3)n(C)c2C)CC(O)C1` (stereo not shown) [Compound 32, N-(3-cyano-4-fluorophenyl)-4-[[(1-ethynyl-3-hydroxycyclobutyl)carbamoyl]carbonyl]-1,3,5-trimethylpyrrole-2-carboxamide], for which the EC50 was in the range of 1 to 10 nM.

Consider `C#C[C@](CO)(NC(=O)C(=O)c1c(C)c(C(=O)Nc2ccc(F)c(C(F)(F)F)c2)n(C)c1C)C1CC1` [Compound 65a, N-[4-fluoro-3-(trifluoromethyl)phenyl]-1,3,5-trimethyl-4-[2-oxo-2-[[(1R)-1-cyclopropyl-1-(hydroxymethyl)prop-2-ynyl]amino]acetyl]pyrrole-2-carboxamide], for which the EC50 is less than 1 nM.

For `C#CC1(NC(=O)C(=O)c2c(C)c(C(=O)Nc3ccc(F)c(C#N)c3)n(C)c2Cl)CC(F)(F)C1` [Compound 39, 5-chloro-N-(3-cyano-4-fluoro-phenyl)-4-[2-[(1-ethynyl-3,3-difluoro-cyclobutyl)amino]-2-oxo-acetyl]-1,3-dimethyl-pyrrole-2-carboxamide], the EC50 is less than 1 nM.

In the case of `C#CC1(NC(=O)C(=O)c2c(C)c(C(=O)Nc3ccc(F)c(F)c3)n(C)c2C)COC1` [Compound 86, N-(3,4-difluorophenyl)-4-[2-[(3-ethynyloxetan-3-yl)amino]-2-oxo-acetyl]-1,3,5-trimethyl-pyrrole-2-carboxamide], the EC50 fell in the range of 1 to 10 nM.

On to `C#CC1(NC(=O)C(=O)c2c(C)c(C(=O)Nc3ccc(F)c(C#N)c3)n(C)c2Cl)COC1` [Compound 40, 5-chloro-N-(3-cyano-4-fluoro-phenyl)-4-[2-[(3-ethynyloxetan-3-yl)amino]-2-oxo-acetyl]-1,3-dimethyl-pyrrole-2-carboxamide], for which the EC50 was less than 1 nM.

As for `C#CC1(NC(=O)C(=O)c2c(C)c(C(=O)Nc3ccc(F)c(C(F)(F)F)c3)n(C)c2C)CC(F)(F)C1` [Compound 37, 4-[2-[(1-ethynyl-3,3-difluoro-cyclobutyl)amino]-2-oxo-acetyl]-N-[4-fluoro-3-(trifluoromethyl)phenyl]-1,3,5-trimethyl-pyrrole-2-carboxamide], the EC50 is less than 1 nM.

With `C#C[C@](C)(CO)NC(=O)C(=O)c1c(C)c(C(=O)Nc2ccc(F)c(C#N)c2)n(C)c1C` [Compound 64a, N-(3-cyano-4-fluoro-phenyl)-1,3,5-trimethyl-4-[2-oxo-2-[[(1R)-1-(hydroxymethyl)-1-methyl-prop-2-ynyl]amino]acetyl]pyrrole-2-carboxamide], the EC50 lay in the range of 1 to 10 nM.

Consider `C#CC(C)(C)NC(=O)C(=O)c1c(C)c(C(=O)Nc2ccc(F)c(C#N)c2)n(C)c1C` [Compound 11, N-(3-cyano-4-fluoro-phenyl)-4-[2-(1,1-dimethylprop-2-ynylamino)-2-oxo-acetyl]-1,3,5-trimethyl-pyrrole-2-carboxamide], for which the concentration for a half-maximal effect (EC50) is less than 1 nM.

For the compound `C=C[C@H](NC(=O)C(=O)c1c(C)c(C(=O)Nc2ccc(F)c(C#N)c2)n(C)c1C)C(F)(F)F` [Compound 36a, N-(3-cyano-4-fluoro-phenyl)-1,3,5-trimethyl-4-[2-oxo-2-[[(1S)-1-(trifluoromethyl)allyl]amino]acetyl]pyrrole-2-carboxamide], the EC50 was less than 1 nM.

Consider `Cc1c(C(=O)C(=O)NC(C)(C)c2cnn(C)c2)c(C)n(C)c1C(=O)Nc1ccc(F)c(C(F)(F)F)c1` [Compound 98, N-[4-fluoro-3-(trifluoromethyl)phenyl]-1,3,5-trimethyl-4-[2-[[1-methyl-1-(1-methylpyrazol-4-yl)ethyl]amino]-2-oxo-acetyl]pyrrole-2-carboxamide], for which the concentration giving a half-maximal response (EC50) is less than 1 nM.

Take `C#C[C@H](CCO)NC(=O)C(=O)c1c(C)c(C(=O)Nc2ccc(F)c(C#N)c2)n(C)c1C` [Compound 61b, N-(3-cyano-4-fluoro-phenyl)-1,3,5-trimethyl-4-[2-oxo-2-[[(1S)-1-(2-hydroxyethyl)prop-2-ynyl]amino]acetyl]pyrrole-2-carboxamide]: the EC50 lay within 1 to 10 nM.

Consider `Cc1c(C(=O)C(=O)NC2(c3ncc[nH]3)COC2)c(C)n(C)c1C(=O)Nc1ccc(F)c(C(F)(F)F)c1` [Compound 155, N-[4-fluoro-3-(trifluoromethyl)phenyl]-4-[2-[[3-(1H-imidazol-2-yl)oxetan-3-yl]amino]-2-oxo-acetyl]-1,3,5-trimethyl-pyrrole-2-carboxamide], for which the EC50 is 1 to 10 nM.

The record behind these values is patent US12599582B2, “Pyrrole compounds” (ALIGOS THERAPEUTICS, INC., priority 2019, dated 2026).
